The record followed here is US20120196915A1, “Antitumor 1,2-Diphenylpyrrole Compounds and their Preparation Process” (ARGON PHARMA, S.L., priority 2009, published 2012).

Molecules are shown by their SMILES.

In one data set the test system is LS174T cell line. Briefly: Cell viability assay (XTT), LS174T. The settings on record: 4 h exposure, 20, 40 or 60 μM, in comparison with the comparative compound. In kind it is cell-based, human. As for the experimental part: (§1) H-727 and H-460 cell lines, derived from human lung carcinoma, and human prostate carcinoma PC3 cells, were cultured in RPMI 1640 medium supplemented with 10% fetal bovine serum, 1% glutamine and 100 units/ml penicillin/streptomycin (Life Technologies, Inc.). LS174T cells, derived from human colorectal carcinoma, and CAL51 cells, from breast carcinoma, were cultured in DMEM medium supplemented with 10% fetal bovine serum, 1% glutamine and 100 units/ml penicillin/streptomycin (Life Technologies, Inc.). All cell lines were incubated at 37° C. in a humidified atmosphere containing 5% CO2. The stock solution of each compound was reconstituted in DMSO and diluted in culture media before use.
(§2) Antitumor activity was evaluated measuring cell metabolic capacity (viability), using the Cell Proliferation Kit II (XTT) and following the recommendations of the manufacturer (Roche Diagnostics). The assays were carried out in triplicates, with controls containing unexposed cells, cells with vehicle, or media plus compound. Cells were seeded into 96-well plates in 100 μl of media and incubated for 24 h. […] After 4 h of incubation at 37° C., the absorbance at 490 nm was read. The growth inhibitory activity was obtained subtracting the absorbance of the blanks and expressed as percentage of cell growth inhibition, as compared with untreated controls.

The test system of the next data set is H-460 cell line. Briefly: Cell viability assay (XTT), H-460. In kind it is cell-based, human. The settings on record: H-460, 4 h exposure, 20, 40 or 60 μM, in comparison with the comparative compound. As for the experimental part:
as §1, §2

The test system of the next data set is CAL51 cell line. Briefly: Cell viability assay (XTT), CAL51. In kind it is cell-based. The settings on record: CAL51, 4 h exposure, 20, 40 or 60 μM, in comparison with the comparative compound. As for the experimental part: as §1, §2
For a further data set, the system named is H-727 cell line. Briefly: Cell viability assay (XTT), H-727. The data set is classed as cell-based, human. The protocol: as §1, §2
A further data set concerns PC3 cell line. Briefly: Cell viability assay (XTT), PC3. In kind it is cell-based, human. The settings on record: PC3, 4 h exposure, 20, 40 or 60 μM, in comparison with the comparative compound. The protocol:
as §1, §2

As for `NS(=O)(=O)c1ccc(-n2cc(C(F)(F)F)cc2-c2cc(C(F)(F)F)cc(C(F)(F)F)c2)cc1` [Example 2, 4-[2-(3,5-Bis(trifluoromethyl)phenyl)-4-(trifluoromethyl)-1H-pyrrol-1-yl]benzenesulfonamide], the tumor cell viability entry was “significantly reduced tumor cell viability” in the data set on LS174T cell line; “significantly reduced tumor cell viability” in the data set with H-460 cell line; “significantly reduced tumor cell viability” with CAL51 cell line; “significantly reduced tumor cell viability” in the data set with H-727 cell line (H-727, 4 h exposure, 20, 40 or 60 μM, in comparison with the comparative compound); “significantly reduced tumor cell viability” with PC3 cell line. Also, in the data set with H-727 cell line (H-727, at 40 μm, 4 h, as compared to the comparative example), the “reduction in the tumor cell viability percentage” value is listed as “more than 50%”.
